Several values for one entry are separate records, joined by “and”; a condition that tells them apart may be missing. Identical values can stand only once. Activity calls are given as the source filed them.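 Rule for the calls: active = half-maximal concentration for changing protein binding to DNA, from the fitted dose curve, below 10 micromolar; inactive = the rest.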

This test deals with Nuclear receptor subfamily 1 group D member 1 (Homo sapiens) (UniProt P20393). Kind of test: Rev-erbα–DNA interaction modulators – biochemical, FITC-DNA, fluorescence polarization, dose response (AID 1259321). To be noted: Rev-erb alpha-FITC-DNA binding.
Chain of Nuclear receptor subfamily 1 group D member 1 (Homo sapiens) (P20393 whole entry, looked up): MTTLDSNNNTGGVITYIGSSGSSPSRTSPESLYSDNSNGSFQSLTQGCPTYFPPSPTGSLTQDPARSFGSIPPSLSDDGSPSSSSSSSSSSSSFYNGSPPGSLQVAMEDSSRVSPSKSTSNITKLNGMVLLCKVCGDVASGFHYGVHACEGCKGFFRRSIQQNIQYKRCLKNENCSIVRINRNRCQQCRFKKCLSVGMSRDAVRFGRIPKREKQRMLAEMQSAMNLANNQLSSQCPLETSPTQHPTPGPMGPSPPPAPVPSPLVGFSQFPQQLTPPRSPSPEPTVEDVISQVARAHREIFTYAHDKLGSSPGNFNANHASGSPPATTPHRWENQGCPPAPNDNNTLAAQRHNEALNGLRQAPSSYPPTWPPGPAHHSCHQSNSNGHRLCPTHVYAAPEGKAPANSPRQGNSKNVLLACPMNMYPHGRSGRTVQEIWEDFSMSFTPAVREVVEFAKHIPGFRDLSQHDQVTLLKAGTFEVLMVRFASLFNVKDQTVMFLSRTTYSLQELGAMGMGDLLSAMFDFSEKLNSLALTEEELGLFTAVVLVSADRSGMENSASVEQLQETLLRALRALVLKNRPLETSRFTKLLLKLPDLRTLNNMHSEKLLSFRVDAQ
Take `Cc1nc(NC(=O)c2cncc(Br)c2)ccc1Br`: the IC50 result is “inactive”.

For `CCNC(=O)C[C@H]1CC[C@H]2[C@@H](COc3ccc(NC(=O)c4ccc5c(c4)OCO5)cc3C(=O)N2C)O1`, the IC50 entry is “inactive”. With `COC(=O)c1cccc(Cn2ccc3ccc(-c4ccc5ccn(C(=O)c6cccc(OC)c6)c5c4)cc32)c1` the figure was > 40 µM (inactive); with `COCCN1C(=O)/C(=C/c2ccc(N3CCCC3)cc2C)SC1=S`, 6.19 µM. To `COC(=O)Cn1cc(/C=C/c2cc[n+](C)cc2)c2ccccc21` belongs “inactive”; to `Cc1ccc(C)c(Nc2nc3c(S(=O)(=O)c4ccccc4)nnn3c3ccccc23)c1`, 8.48 µM. With `COc1ccc2[nH]c(C(=O)Nc3ccc(C)c(F)c3)cc2c1` the figure was 0.647 µM; with `CN(CC(=O)Nc1ccc(Cl)cc1)S(=O)(=O)c1ccc2c(c1)n(C)c(=O)c(=O)n2C`, 5.44 µM. Turning to `Cn1c(SCC(=O)c2ccc3c(c2)Cc2ccccc2-3)nnc1-c1ccccc1`, the half-maximal inhibitory concentration (IC50) was 2.24 µM. To `CCN(Cc1nc2cc(Cl)ccc2c(=O)[nH]1)C(=O)c1cc2c(s1)CCCCC2` belongs 3.21 µM; to `O=C(COC(=O)c1cc(Br)ccc1O)Nc1cccnc1Cl`, 2.58 µM; to `C[n+]1c2cc(N)ccc2cc2ccc(N)cc21`, 2.68 µM and 8.02 µM.

For `CC(C)n1cc(/C=C/c2cc[n+](C)cc2)c2ccccc21`, the IC50 result is “inactive”.

Take `Cc1ccsc1C(=O)Nc1ccc(O)c(-c2nc3ccccc3s2)c1`: the half-maximal inhibitory concentration (IC50) was 6.87 µM. To `Nc1ccc2ccc3cccc[n+]3c2c1` belongs 8.15 µM; to `COc1ccc(-n2nc(C(=O)NCC(=O)NCc3ccc(F)cc3)c3ccccc3c2=O)cc1OC`, “inactive”. To `CC(=O)c1ccccc1NC(=O)c1cc(S(=O)(=O)N2CCOCC2)ccc1N1CCCC1` belongs 4.33 µM. `CN(C)/C=C1\C=C2C(=O)c3ccccc3N2C1=O`: the IC50 is 0.714 µM.

Regarding `CCc1cc2cc3c(cc2nc1SCC(=O)Nc1nccs1)OCO3`, the IC50 is > 40 µM (inactive). With `Cc1nc(N2CCC(C)CC2)c2c(C)c(C(=O)Nc3ccc(C)c(F)c3)sc2n1` the figure was > 40 µM (inactive); with `CCOc1ccc(-n2c([S-])c(C(=O)Nc3ccc(S(=O)(=O)N4CCOCC4)cc3)[n+]3cc(C(N)=O)ccc23)cc1`, “inactive”; with `CCc1ccc(-c2cc(C(F)(F)F)n3nc(C(=O)Nc4c(C)nn(Cc5ccccc5Cl)c4C)cc3n2)s1`, “inactive”. To `COc1cccc(C(=O)n2ccc3ccc(-c4ccc5ccn(C(=O)c6cccc(OC)c6)c5c4)cc32)c1` belongs 3.26 µM; to `Nc1cccc(N2C(=O)c3cccc4c(N)ccc(c34)C2=O)c1`, “inactive”. With `COc1ccccc1C(=O)Nc1nnc(-c2ccc(F)cc2)s1` the figure was 3.13 µM.

On to `COc1ccc(-n2nc3c(N4CCC(C(=O)NCc5ccccc5)CC4)nnc(C)c3c2C)cc1`, for which the IC50 was > 40 µM (inactive). To `O=C(CSc1nnc2scc(-c3ccccc3)n12)Nc1nsc(-c2ccccc2)n1` belongs > 40 µM (inactive). To `O=C(Nc1nc(=O)c2ccccc2s1)c1ccc(F)cc1` belongs 1.57 µM. To `O=S(=O)([N-]c1nc2ccccc2nc1-n1cc[n+](Cc2ccccc2)c1)c1ccc(Br)cc1` belongs 1.06 µM; to `Cc1cc(/C=C(/C#N)C(=O)Nc2ccc(Cl)cc2)c(C)n1-c1cccnc1`, 2.66 µM; to `Cc1c(C2N3CC4(C)CN2CC(C)(C3)C4=O)c2ccccc2n1C` (stereo unspecified), “inactive”. As to `COc1ccc(C(=O)Nc2nc(C)c(C(C)=O)s2)cc1S(=O)(=O)N1CCOCC1`, the IC50 is > 40 µM (inactive).

As to `Brc1ccc(-c2nn3c(-c4ccccc4)nnc3s2)cc1`, the IC50 was > 40 µM (inactive). With `CC(=O)c1cnc2c(-c3cccc(Br)c3)cnn2c1C` the figure was > 40 µM (inactive); with `NS(=O)(=O)c1ccc(CCNC(=O)c2cc(-c3ccccn3)nc3ccc(Br)cc23)cc1`, 3.78 µM; with `Fc1cccc2sc(Nc3nc4ccccc4s3)nc12`, > 40 µM (inactive). With `CSc1ccc(CCNC(=O)c2cc(-c3ccccc3)c(N3CCOCC3)s2)cc1`, the IC50 was 2.74 µM.

With `CCSC1=N/C(=C\C=C2/Oc3ccccc3N2CC)C(=O)S1`, the IC50 is 9.41 µM. With `CCN(CC)c1ccc2cc(C=O)c(=O)oc2c1` the figure was > 40 µM (inactive); with `COc1cccc(-c2nc(CS(=O)(=O)CC(=O)NCc3ccc(Cl)cc3)c(C)o2)c1`, > 40 µM (inactive); with `O=c1ccc(-c2ccc(S(=O)(=O)N3CCN(c4ccccc4)CC3)o2)n[nH]1`, > 40 µM (inactive). To `COc1ccc(-c2c(C)nc(N)nc2-c2ccc(OCc3ccc(C)cc3)cc2O)cc1OC` belongs > 40 µM (inactive); to `CCOC(=O)c1sc(NC(=O)c2ccc(S(=O)(=O)N(CC)CC)cc2)nc1C`, “inactive”; to `CCOc1ccc(OCC)c(NC(=O)c2[nH]c(C)c(C(C)=O)c2C)c1`, 3.56 µM. Turning to `O=C(c1cccs1)N1C(=O)c2cccc3cccc1c23`, the IC50 was 4.29 µM. To `CCc1cc2cc3c(cc2nc1SCC(=O)Nc1cc(C)on1)OCO3` belongs 3.31 µM. With `CS(=O)(=O)Nc1ccc(-c2ccc(/C=C3\SC(N)=NC3=O)o2)cc1` the figure was 8.42 µM; with `COc1ccccc1N(C)S(=O)(=O)c1ccc(C(=O)Nc2nc(C)c(C(C)=O)s2)cc1`, “inactive”; with `COc1cc2c3nnc(-c4ccc(F)cc4)c-3cn(Cc3ccccc3F)c2cc1OC`, 1.98 µM. To `CN(C)/C=N/C1=C(C#N)C(c2cccs2)c2ccc3ccccc3c2O1` (stereo unspecified) belongs 3.95 µM. With `COc1ccccc1CNC(=O)COC(=O)c1cccnc1SCC(=O)NCc1ccccc1OC`, the 50% inhibitory concentration (IC50) is 5.05 µM. With `CN1C(=O)N(C)c2ccc(Br)c3cccc1c23` the figure was > 40 µM (inactive); with `COc1ccccc1C(=O)Nc1nc2ccccc2s1`, 5.23 µM; with `NS(=O)(=O)c1ccc(CNC(=O)c2cc(-c3cccnc3)nc3ccc(Br)cc23)cc1`, 0.496 µM. To `COc1ccccc1NC(=O)CSc1nc(N)c(C#N)cc1C#N` belongs “inactive”; to `O=c1c2ccccc2sc2ccc(Cl)cc12`, 3.38 µM; to `Oc1ccc2ccc3cccc[n+]3c2c1`, > 40 µM (inactive). With `Cc1ccc(Oc2nccc(-c3ccc(Cl)cc3)n2)cc1` the figure was 7.31 µM; with `COC(=O)c1cc(-c2cc3ccccc3s2)c(=O)n2c1CCC2`, 7.41 µM; with `O=c1c2ccccc2n2c(-c3ccc(F)cc3)nnc2n1Cc1ccccc1`, “inactive”. For the compound `COc1ccc(-c2cc(-c3ccccc3)c(C#N)c(SCC(=O)Nc3ncc(C)s3)n2)cc1`, the concentration for half-maximal inhibition (IC50) was 3.58 µM. With `CCOc1cccc2sc(NC(=O)c3ccc(Br)s3)nc12` the figure was > 40 µM (inactive); with `O=C(COc1ncnc2ccc(Br)cc12)NCc1ccc2c(c1)OCO2`, 1.94 µM. To `N#Cc1c(N)nc2c3c(sc(=N)c2c1N)NC(=O)CC3c1ccccc1` (stereo unspecified) belongs > 40 µM (inactive); to `CCCN=C(C)c1c(-c2ccccc2)[nH]n(-c2nc3ccccc3s2)c1=O`, 0.917 µM; to `C#CCn1c(=NC(=O)c2ccc(Br)s2)sc2cccc(OC)c21`, 2.4 µM. To `COc1ccc(-c2cc(-c3ccccc3)nc(SCC(=O)Nc3nccs3)c2C#N)cc1` belongs > 40 µM (inactive).

Consider `CCN1C(=O)C(=CC=CN(C)c2ccccc2)SC1=S`, for which the IC50 entry was “inactive”.

As for `C=CCN1C(=O)/C(=C\C=C2\N(C)c3ccccc3C2(C)C)SC1=S`, the IC50 entry was “inactive”. With `Cc1cc(=O)oc2cc(OCC3CC(c4ccc(Br)cc4)=NO3)ccc12` (stereo unspecified) the figure was 1.04 µM. With `CN(C)c1ccc(/C=C2\NC(=S)N(Cc3ccccc3)C2=O)cc1`, the IC50 was > 40 µM (inactive). To `Clc1ccccc1-c1nn2c(-c3cc(-c4ccccc4)n[nH]3)nnc2s1` belongs > 40 µM (inactive). To `O=C(CCCn1c(=S)[nH]c2cc3c(cc2c1=O)OCO3)NCc1ccccc1Cl` belongs “inactive”.

Consider `COc1ccc2nc(SCC(=O)Nc3ccc4sc(C)nc4c3)c(C#N)cc2c1`, for which the IC50 was 1.98 µM. To `COc1ccc(C(=O)Nc2ccccc2-c2nnn(CC(N)=O)n2)cc1` belongs “inactive”; to `CCOC(=O)c1c(-c2ccccc2)csc1NC(=O)c1cc(S(=O)(=O)N2CCOCC2)ccc1C`, 4.51 µM.

For the compound `COc1ccccc1N=Nc1c(O)[nH]c(=S)[nH]c1=O`, the IC50 is > 40 µM (inactive).

As for `COc1ccc(NC(=O)CSc2nc3ccccc3c(=O)n2-c2ccc3c(c2)OCO3)c(OC)c1`, the IC50 is > 40 µM (inactive). To `COc1cc(/C=N/NC(=O)c2c(C)nc3ccc(Cl)cn23)cc(OC)c1OC` belongs > 40 µM (inactive). Turning to `C=CCn1c(SCC(=O)Nc2sccc2C#N)nc2sc(C)c(C)c2c1=O`, the IC50 was > 40 µM (inactive). To `COc1ccc(-c2nn(C)c3sc(C(=O)NCc4ccco4)cc23)cc1OC` belongs > 40 µM (inactive); to `CCCC(Oc1ccc(Br)cc1)c1nc2c3cc(OC)c(OC)cc3nc(=S)n2[nH]1` (stereo unspecified), > 40 µM (inactive). To `O=c1oc2ccccc2c(NC(c2ccccc2)c2ccccc2)c1[N+](=O)[O-]` belongs > 40 µM (inactive); to `CCOc1ccccc1NC(=O)c1cnc2n(c1=O)CCS2`, > 40 µM (inactive); to `COc1ccc(CCn2c(-c3ccc(OC)cc3)nc3c(c(=O)c4ccccc4n3C)c2=O)cc1`, 7.79 µM. Consider `CC(=O)c1sc(NC(=O)c2oc3ccc(F)cc3c2C)nc1C`, for which the half-inhibitory concentration (IC50) is 8.25 µM. With `CCCCOC(=O)c1cc(C)nc2ccc(Br)cc12`, the IC50 entry was “inactive”.

As for `COc1ccccc1-c1nc(SCC(=O)Nc2cc(C)on2)c2c(=O)n(C)c(=O)n(C)c2n1`, the half-maximal inhibitory concentration (IC50) was 5.36 µM. `O=[N+]([O-])c1ccc(N2CCCC2)c2ccncc12`: the IC50 is > 40 µM (inactive). With `Cc1cc(C)c(NC(=O)CSc2nc3ncc(Br)cc3[nH]2)c(Cl)c1` the figure was 6.22 µM; with `O=[N+]([O-])c1ccc(N(c2ccccc2)c2ccccc2)cc1`, 4.62 µM.

These data come from PubChem BioAssay AID1259321 (Sanford-Burnham Center for Chemical Genomics, 2017).
